Like-named read-outs stand apart in the source and are kept apart here.
Assays:
[1] = system: HIV reverse transcriptase; conditions: active metabolite; cited from earlier work
[2] = system: human T-lymphoblastic cell line CEM, infected with HIV; assay: Intracellular and extracellular pharmacokinetic profiles of ZDV and its metabolites in hollow-fiber bioreactor dosing system (Example 2); assay type: in vitro ADME
Description: The bioreactor includes a cartridge of polypropylene capillaries that is commercially available from Unisyn Technologies, Inc. (Hopkinton, Mass.). The cells in the bioreactor are a human T-lymphoblastic cell line CEM, infected with HIV. The volume of distribution (VD), which is total amount of fluid in the loop 201 and the central reservoir 230, is 50 ml. The fast and slow pumps are Ismatic Peristaltic Pumps commercially available from Cole-Parmer (Niles, Ill.). The dosing element is a programmable dosing pump commercially available from Medex, Inc. (Deluth, Ga.).
The fast pump is operated at a flow rate of 35 ml/min. The dilution pump 218 is operated at a flow rate of 0.5 ml/min.
The drug Zidovudine (ZDV) is infused at four different dosing regimens for a dosing period of 24 hours, i.e., 0.1 μg/ml, continuously at 0.37 μM; 100 μg every 8 hours; 150 μg every 12 hours; and 300 μg at 24 hours. The control is operated without dosing ZDV.
Samples are removed through sampling port 272. Extracellular concentrations are determined from the fluid, and intracellular concentrations are determined after harvesting and treating the cells to extract the contents.
Drug concentration time curves allow the determination of Cmax, Cmin and AUC.
Thus, the AUCs are similar for the intracellular ZDV-diphosphate and intracellular ZDV-triphosphate.

| SMILES | inhibits HIV reverse transcriptase, which results in the inhibition of HIV replication [1] | amount of ZDV-triphosphate resulting from all four dosing regimens [2] | intracellular AUCs across four dosing regimens [2] | intracellular concentration on increasing the dose of ZDV [2] | intracellular concentration profiles across four dosing regimens ([2]; FIG. 11a-c, ZDV infused over 24 h: continuously at 0.37 μM, 100 μg every 8 hours, 150 μg every 12 hours, 300 μg at 24 hours) | intracellular concentration on increasing the dose of ZDV ([2]; increasing the dose of ZDV) | rate limiting step of intracellular ZDV phosphorylation ([2]; suggested by the data) |
| --- | --- | --- | --- | --- | --- | --- | --- |
| Cc1cn([C@H]2C[C@H](N=[N+]=[N-])[C@@H](CO[P@](=O)(O)O[P@](=O)(O)OP(=O)(O)O)O2)c(=O)[nH]c1=O [ZDV-triphosphate] | inhibits HIV reverse transcriptase | same amount | similar | does not result in an increase | – | – | – |
| Cc1cn([C@H]2C[C@H](N=[N+]=[N-])[C@@H](COP(=O)(O)OP(=O)(O)O)O2)c(=O)[nH]c1=O [ZDV-diphosphate] | – | – | similar | does not result in an increase | – | – | – |
| Cc1cn([C@H]2C[C@H](N=[N+]=[N-])[C@@H](COP(=O)(O)O)O2)c(=O)[nH]c1=O [ZDV-monophosphate] | – | – | – | – | different profiles | relative increase | rate limiting step is the conversion of ZDV-monophosphate to ZDV-iphosphate |
